According to ChEMBL document CHEMBL5346962, “Discovery of Sulanemadlin (ALRN-6924), the First Cell-Permeating, Stabilized α-Helical Peptide in Clinical Development” (J Med Chem, 2023):
Bridge positions count the residues as written; N and C are the ends. Square brackets hold non-standard residues; d marks the D form. Peptide text beside a SMILES is read from it. R8 = C=CCCCCCC[C@@](C)(N)C(=O)O; S5 = C=CCCC[C@](C)(N)C(=O)O

Test system: SJSA-1
Experiment: Cytotoxicity against human SJSA-1 cells incubated for 72 hrs in presence of 10% FBS by MTT assay
Conditions: SJSA-1, 72 h

**Q.** How did the EC50 turn out when `CC(=O)N[C@@H](CC(C)C)C(=O)N[C@H](C(=O)N[C@@H](Cc1ccccc1)C(=O)N[C@]1(C)CCCCCC/C=C\CCC[C@@](C)(C(=O)N[C@@H](C)C(=O)N[C@@H](C)C(=O)N[C@@H](C)C(=O)O)NC(=O)[C@H](CC(C)C)NC(=O)[C@H](CCC(N)=O)NC(=O)[C@H](C)NC(=O)[C@H](Cc2c[nH]c3ccccc23)NC(=O)[C@H](Cc2ccc(O)cc2)NC(=O)[C@H](CCC(=O)O)NC1=O)[C@@H](C)O` (Ac-LTF[R8]EYWAQL[S5]AAA-OH; staple (Z) 4-11) was run?
**A.** 2.5 µM
